Experimental data as given in patent US20260216141A1, “NECROSIS INHIBITOR” (LINKGEVITY LIMITED, priority 2023, published 2026).
Entries after “also recorded” stand apart in the source; their conditions may differ.

Columns and labels:
Hepg2s spheroids = type: cell-based
Experimental: Media changes were on alternative days. […] DMSO controls were added on each plate.
In some of the following Examples, human 3D cell culture was employed using liver Hepg2 cells. 3D cell culture is known to accurately replicate a cell's native environment. During embryonic development, cells aggregate and self-assemble into complex multi-cellular structures. The same aggregation process can likewise occur in in vitro culture systems if cell-cell cohesion is favoured over cell attachment to a substrate. The resulting 3D cell culture aggregates are known as spheroids. […] A standard method of spheroid formation in U-bottom low adhesion plates was used in the Examples herein.
This is because, as the spheroids grow, only the peripheral cells obtain oxygen and nutrients from the cell culture medium. The inner cells die from cell death necrosis, with the formation of large necrotic cores (observable though use of standard live dead stains). Thus, necrotic core formation represents a naturally occurring hypoxic and nutrient stress. This resembles multiple forms of shock in humans where blood flow carrying nutrients and oxygen is disrupted to certain cells, tissues and/or organs.

D. melanogaster = assay: Drosophila cold/freeze stress survival; type: in vivo, Drosophila melanogaster; conditions: fed 12 hrs food containing 2500 μM EGTA; 0 degrees for 10 min
Experimental: Animals were under standard culture conditions. On day 1 of adulthood, they were starved for 8 hrs, then fed 12 hrs+/−EGTA 2500 μM. Following this, the animals were moved to 0° C. for 10 min and then recovered and survival measured.
Fruit flies, Drosophila melanogaster, were likewise exposed to heat and cold stress. […]. Flies were starved for a short period of 8 hrs and then fed for 12 hrs yeast containing high doses of a calcium chelating agent to ensure an adequate amount of drug entered the animals; doses used were: 0 or 2500 μM EGTA. This was followed by cold/freeze stress, where animals were placed at 0° C. for 10 min, and then animals were scored for survival every 12 hrs. […] Thus, like with single celled yeast and bacteria and C. elegans, a full organism level protective effect of blocking the predicted weak spots associated with cell death necrosis was also seen in fruit flies.

[1] = tested on: Zebra fish (Danio rerio) liver; assay: Zebra fish liver oxidative stress, PI/DAPI staining; type: cell-based; conditions: 2500 μM EGTA during stress, 7 min in 1 mM H2O2
Experimental: Freshly culled zebrafish (Danio rerio) was dissected to quickly remove the liver which was then placed in PBS buffer and immediately stressed with 1 mM hydrogen peroxide for 7 min in with or without 2500 μM EGTA. The liver was then washed in PBS to stop the stress and stained with PI as well as DAPI to visualise all cell nuclei (including intact cell nuclei). The liver was then placed on a microscope slide under a coverslip and imaged.
Moving to more complex animals, the intact liver from freshly culled and dissected zebrafish (Danio rerio) was placed in PBS buffer and immediately stressed with the toxin hydrogen peroxide with or without EGTA. The liver was then washed in PBS and stained with PI as well as DAPI to visualise all cell nuclei (including intact cell nuclei). The liver was then placed on a microscope slide under a coverslip and imaged, and the percentage of PI-stained cells scored (relative to all cells seen in the image, i.e., DAPI stained).

S. pombi = S. pombi oxidative stress, Propidium iodide staining; type: cell-based; conditions: EGTA 2500 μM during stress; 50 min 1 mM H2O2
Experimental: A culture of S. pombi was exposed to 1 mM hydrogen peroxide for 50 min. Following this the yeast cells were washed in buffer and stained with the dye Propidium iodide (PI) and placed on a microscope slide under a coverslip and imaged using Nomarski and epifluorescence microscopy to identify the percentage of yeast cells that underwent necrosis. Treatment is EGTA 2500 μM during stress. Two repeats were performed.
Bacteria, E. coli, and yeast, S. pombi, were exposed to toxin hydrogen peroxide stress (stress is for 50 min 1 mM H2O2) with or without high doses (2500 μM; c.f. FIG. 2) of the chelating agent EGTA (inhibitor of the predicted weak spot of loss of calcium ion homeostasis in the cytosol) delivered during the stress.
For yeast, cells were stained with the standard viability dye Propidium iodide (PI) that only enters necrotic cells, placed on a microscope slide under a coverslip, and imaged using Nomarski and epifluorescence microscopy to identify the percentage of cells that undergo necrosis (all cells present could be counted using Nomarski microscopy).

C. elegans = C. elegans survival after cold, heat, oxidative and toxin stress; type: in vivo, Caenorhabditis elegans; conditions: EGTA 2500 μM in liposomes, 3 hrs prior to stress or 3 hrs post stress
Experimental: C. elegans was maintained on nematode growth medium (NGM) agar plates seeded with Escherichia coli OP50, using standard culture methodologies (S. Brenner, 1974). A C. elegans (N2H) hermaphrodite stock was used as wild-type. Day 1 hermaphrodites were used in experiments and all maintenance and trials were conducted at 20° C. unless otherwise stated.
Per trial, 100 animals were placed in 1.5 ml Eppendorf tubes ([…]) containing 100 μl M9 buffer, and then transferred to a −80° C. incubator for 1.5 min. Following the stress, animals were transferred to a 20° C. incubator and maintained as usual on OP50 NGM plates. • Heat stress
Per trial, 100 animals were placed in a 37° C. incubator for 4.5 hrs on NGM plates. Following the stress, animals were transferred to a 20° C. incubator and maintained as usual on OP50 NGM plates. • Oxidative stress
Per trial, 100 animals were transferred into 1.5 ml Eppendorf tubes (20 animals per tube) containing 300 μL of 2M hydrogen peroxide for 5 min. Following the stress, animals were transferred to a 20° C. incubator and maintained as usual on OP50 NGM plates. • Toxin stress
Per trial, 100 animals were transferred into 1.5 ml Eppendorf tubes (20 animals per tube) containing 300 μL of 1.3% (v/v) tert-butylhydroperoxide (tBOOH) for 5 min. […]
Next the model Caenorhabditis elegans was used and animal survival following stress was scored. […]

Compound: O=C(O)CN(CCOCCOCCN(CC(=O)O)CC(=O)O)CC(=O)O [EGTA, ethylene glycol-bis(β-aminoethyl ether)-N,N,N′,N′-tetraacetic acid]
- dosage needed to suppress necrosis (Hepg2s spheroids; Hepg2s spheroids, day 7): 2500 µM
- toxicity at earlier time points (Hepg2s spheroids; time points earlier than day 7): some mild, but not statistically significant, toxicity
- D. melanogaster death / survival following cold/freeze stress (D. melanogaster): death is prevented; also recorded: significant protective effect
- % of necrotic cells (PI stain) relative to all cells (DAPI stain) [1]: necrosis cell death is prevented; also recorded: reduction in the percentage of necrotic (PI stained) cells
- S. pombi death / % of necrotic (PI stained) cells following oxidative stress (S. pombi): death is prevented
- C. elegans death / survival following stress (C. elegans): death is prevented
